Source: patent US9926573B2, “Glyphosate-tolerant gene and use thereof” (priority 2012, dated 2018)
Where a chain is given by its changes, count along the chain named.

Key:
[1] = system: E. Coli BL21 (DE3) transformed with LS-EPSPS-PET; assay: Growth (OD) of E. coli strain transformed with LS-EPSPS-PET in glyphosate-containing LB; type: cell-based; conditions: compared with strain with empty vector PET-28a
Description: The LS-EPSPS gene was cloned into the vector PET-28a, and transferred to E. Coli BL21 (DE3), to obtain a transgenic strain. The reading frame of the transgenic strain was expressed under control of the T7 promoter in the PET system.
The stain transformed with LS-EPSPS-PET or PET-28a (empty vector, control) was incubated in LB, and grown in an LB liquid medium containing Kan at 37° C. when OD600 reached […], until the OD value reached about 0.4. […] These indicate that the LS-EPSPS gene has glyphosate-resistant/tolerant activity.

[2] = system: callus of the control Arabidopsis thaliana; assay: Callus growth on glyphosate-containing MS medium, control; type: cell-based; conditions: two weeks, 25° C.
Description: (§1) The transgenic Arabidopsis thaliana plant was obtained by screening. The stem of the tissue cultured seedling of the non-transgenic and the LS-EPSPS transgenic Arabidopsis thaliana was used as an explant for callus induction in an MS medium containing 2.0 mg/L of 6-BA and 0.1 mg/L of NAA. […] The results were statistically calculated after two weeks.

[3] = system: callus of the transgenic Arabidopsis thaliana; assay: Callus growth on glyphosate-containing MS medium, LS-EPSPS transgenic; type: cell-based; conditions: two weeks, 25° C.
Description: as §1

[4] = target: T1, EPSPase (Liriope muscari (Liriope platyphylla), UniProt A0A0N9BED7); assay: Ex-vivo EPSPase activity assay, crude extract; type: biochemical; conditions: 25° C., 15 min
T1 sequence (A0A0N9BED7 66-518): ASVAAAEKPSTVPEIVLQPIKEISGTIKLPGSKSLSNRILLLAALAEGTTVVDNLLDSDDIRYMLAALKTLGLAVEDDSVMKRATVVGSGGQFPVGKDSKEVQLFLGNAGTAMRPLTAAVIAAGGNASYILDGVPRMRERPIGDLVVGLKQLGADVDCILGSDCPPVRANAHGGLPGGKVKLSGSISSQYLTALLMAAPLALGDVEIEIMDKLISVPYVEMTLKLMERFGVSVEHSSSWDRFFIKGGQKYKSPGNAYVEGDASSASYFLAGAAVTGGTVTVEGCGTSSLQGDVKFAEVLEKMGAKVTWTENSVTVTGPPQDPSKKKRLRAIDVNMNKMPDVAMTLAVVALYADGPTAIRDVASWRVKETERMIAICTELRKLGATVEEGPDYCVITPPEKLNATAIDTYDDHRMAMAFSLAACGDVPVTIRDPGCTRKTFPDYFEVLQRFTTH
Description: (§2) 0.5 g of the seedlings of Ophiopogon japonicus, Liriope spicata, Liriope platyphylla and wide-type Arabidopsis thaliana were weighed, added with 150 ml of an extraction buffer A [containing 100 mmol/L Tris pH 7.5, 1 mmol/L EDTA, 10% (V/V) glycerol, 1 mg/L BSA, 10 mmol/L Vitamin C (Vc), 1 mmol/L benzamidine, 5 mmol/L DTT, and 20 mg/ml PVPP], ground and homogenized, filtered through 6 layers of gauze, and centrifuged at 12000 rpm and 4° C. […] Following the method as described by Lanzetta and Alvarez (1979), the reaction was developed for 30 min by adding 800 μl of malachite green hydrochloride, and then 100 μl of a 34% sodium citrate solution was added. After 30 min, the OD660 value was determined at 660 nm on a spectrophotometer. […] Logistic regression analysis was performed and the ED50 was calculated.

[5] = target: T2, EPSPase (Ophiopogon japonicus, UniProt A0A0N7E509); assay: Ex-vivo EPSPase activity assay, crude extract; type: biochemical; conditions: 25° C., 15 min
T2 sequence (A0A0N7E509 64-516): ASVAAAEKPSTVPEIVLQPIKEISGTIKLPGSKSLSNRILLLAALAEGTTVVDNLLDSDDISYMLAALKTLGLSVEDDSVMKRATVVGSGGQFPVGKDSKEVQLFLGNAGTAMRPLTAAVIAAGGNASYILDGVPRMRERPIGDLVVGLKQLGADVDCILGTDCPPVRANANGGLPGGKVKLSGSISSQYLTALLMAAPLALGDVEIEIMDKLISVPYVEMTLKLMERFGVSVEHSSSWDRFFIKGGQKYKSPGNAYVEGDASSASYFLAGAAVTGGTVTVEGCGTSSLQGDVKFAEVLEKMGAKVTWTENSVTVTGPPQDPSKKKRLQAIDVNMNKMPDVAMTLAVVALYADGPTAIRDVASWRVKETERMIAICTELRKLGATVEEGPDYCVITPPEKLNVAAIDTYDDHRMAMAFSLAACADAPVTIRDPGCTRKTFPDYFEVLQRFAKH
Description: as §2

[6] = target: T3, EPSPase (Liriope spicata, UniProt A0A0N9BED5); assay: Ex-vivo EPSPase activity assay, crude extract; type: biochemical; conditions: 25° C., 15 min
T3 sequence (A0A0N9BED5 66-518): T1 sequence (A0A0N9BED7 66-518) with A74T, S162T, I331V, T404N, G424A
Description: as §2

[7] = system: EPSPase; assay: Ex-vivo EPSPase activity assay, crude extract; type: biochemical, wide-type Arabidopsis thaliana
Description: as §2

O=C(O)CNCP(=O)(O)O [glyphosate, N-(phosphonomethyl)glycine]
ED50 value of the strain (logistic regression) [1]: greatly higher than that of the strain with the empty vector PET-28a
glyphosate concentration at which callus becomes yellow and gradually mortifies [2]: 50 mg·L
glyphosate concentration at which callus can still normally grow [3]: 600 mg/L
glyphosate concentration at which callus is inhibited in growth and becomes brown and yellow [3]: 800 mg/L
glyphosate concentration at which EPSPase activity declines obviously [4]: 1000 µmol/L
glyphosate concentration at which EPSPase activity declines obviously [5]: 800 µmol/L
glyphosate concentration at which EPSPase activity declines obviously [6]: 1000 µmol/L
glyphosate concentration at which EPSPase activity declines obviously ([7]; 25° C., 15 min): 500 µmol/L
EC50 ([7]; logistic regression, read-out: ED50 for the EPSPase activity): 560 µM
